According to patent US8329675B2, “Inhibitors of fatty acid amide hydrolase” (Infinity Pharmaceuticals, Inc., priority 2006, dated 2012):

Biological target: T1, human FAAH (Homo sapiens, UniProt O00519)
T1 construct: host or cells: COS-7 cells, transient transfection; 13,000 g membrane fraction solubilised in 1% Triton X-100
T1 sequence (O00519 1-579): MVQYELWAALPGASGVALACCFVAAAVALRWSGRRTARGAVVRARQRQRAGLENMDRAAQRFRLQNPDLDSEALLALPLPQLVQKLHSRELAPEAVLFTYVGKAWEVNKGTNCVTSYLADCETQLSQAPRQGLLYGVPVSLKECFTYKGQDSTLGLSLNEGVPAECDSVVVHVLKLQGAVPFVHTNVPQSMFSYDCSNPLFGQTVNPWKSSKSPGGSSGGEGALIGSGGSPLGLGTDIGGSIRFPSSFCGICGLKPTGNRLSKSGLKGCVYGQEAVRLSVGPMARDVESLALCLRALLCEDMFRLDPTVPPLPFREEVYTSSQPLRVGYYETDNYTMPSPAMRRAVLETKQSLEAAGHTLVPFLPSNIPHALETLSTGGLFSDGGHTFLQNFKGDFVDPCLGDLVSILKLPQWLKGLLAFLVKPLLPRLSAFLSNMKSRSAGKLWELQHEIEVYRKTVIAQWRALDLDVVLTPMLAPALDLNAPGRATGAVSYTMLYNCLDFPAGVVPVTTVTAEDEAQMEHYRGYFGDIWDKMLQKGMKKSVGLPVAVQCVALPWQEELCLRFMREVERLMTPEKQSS
Test: Human FAAH biochemical inhibition assay (AMC arachidonoyl amide fluorescence)
Conditions: Table 2, human FAAH (no asterisk); read-out: Activity (Ki)
Procedure, shortened: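 Solubilized membrane fraction from COS-7 cells transfected with human FAAH, used at a final 0.05 mg/ml in 50 mM Hepes pH 7.5, 1 mM EDTA, 0.2% Triton X-100. Inhibitor pre-incubated 30 min at room temperature; 20 uM final AMC arachidonoyl amide added, reaction run 4 h at room temperature, fluorescence read.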

Row | SMILES | Ki [nM]
1 | OB(O)c1ccc(Oc2ccc(Cl)c(Cl)c2)cc1 [II-259] | < 10
2 | OB(O)c1ccc(Oc2cc(F)cc(F)c2)cc1 [II-260] | < 10
3 | OB(O)c1ccc(Oc2ccc(F)c(F)c2)cc1 [II-261] | < 10
4 | COc1ccc(Oc2ccc(B(O)O)cc2)cc1OC [II-262] | < 10
5 | OB(O)c1ccc(Oc2cc(F)c(F)c(F)c2)cc1 [II-263] | < 10
6 | COc1ccc(Oc2ccc(B3OC(C)(C)C(C)(C)O3)cc2)cc1OC [II-264] | < 10
7 | Cc1cc(COc2ccc(B(O)O)cc2F)ccc1F [II-265] | < 10
8 | Cc1ccc(F)c(COc2ccc(B(O)O)cc2)c1Cl [II-266] | 10 to 100
9 | Cc1cc(COc2ccc(B(O)O)cc2)ccc1F [II-267] | 10 to 100
10 | Cc1cccc(COc2ccc(B(O)O)cc2)c1F [II-268] | 10 to 100
11 | OB(O)c1ccc(OCc2ccc(Cl)cc2)cc1 [II-269] | < 10
12 | Cc1cccc(COc2ccc(B(O)O)cc2)c1 [II-270] | 10 to 100
13 | CCCCOc1ccc(Oc2ccc(B(O)O)cc2)cc1F [II-271] | < 10
14 | Cc1ccc(Oc2ccc(B(O)O)cc2)cc1F [II-272] | < 10
15 | CCCOc1ccc(Oc2ccc(B(O)O)cc2)cc1F [II-273] | < 10
16 | OB(O)c1ccc(Oc2ccc3c(c2)OCO3)cc1 [II-274] | < 10
17 | Cc1ccc(Oc2ccc(B(O)O)cc2)cc1[N+](=O)[O-] [II-275] | < 10
18 | Cc1ccc(Oc2ccc(B(O)O)cc2)cc1Cl [II-276] | < 10
19 | Cc1ccc(Oc2ccc(B(O)O)cc2)cc1C [II-277] | < 10
20 | COc1ccc(Oc2ccc(B(O)O)cc2)cc1 [II-278] | < 10
21 | COc1cccc(Oc2ccc(B(O)O)cc2)c1 [II-279] | < 10
22 | Cc1ccc(Oc2ccc(B(O)O)cc2)cc1 [II-280] | < 10
23 | Cc1cccc(Oc2ccc(B(O)O)cc2)c1 [II-281] | < 10
24 | COc1cc(B(O)O)ccc1Oc1cccc(F)c1 [II-282] | < 10
25 | Cc1cc(B(O)O)cc(C)c1Oc1cccc(F)c1 [II-283] | 10 to 100

Row | SMILES | Ki [nM]
26 | COC(=O)c1ccc(Oc2ccc(B(O)O)cc2)cc1 [II-284] | < 10
27 | COC(=O)c1cccc(Oc2ccc(B(O)O)cc2)c1 [II-285] | < 10
28 | Nc1ccc(Oc2ccc(B(O)O)cc2)cc1 [II-286] | 10 to 100
29 | Nc1cccc(Oc2ccc(B(O)O)cc2)c1 [II-287] | 10 to 100
30 | CC(C)(C)OC(=O)Nc1ccc(Oc2ccc(B(O)O)cc2)cc1 [II-288] | 10 to 100
31 | CC(C)(C)OC(=O)Nc1cccc(Oc2ccc(B(O)O)cc2)c1 [II-289] | 10 to 100
32 | OB(O)c1ccc(Oc2ccc(F)cc2)cc1 [II-290] | < 10
33 | OB(O)c1ccc(Oc2cccc(F)c2)cc1 [II-291] | < 10
34 | OB(O)c1ccc(Oc2ccncc2)cc1 [II-292] | 10 to 1000
35 | OB(O)c1ccc(Oc2cccnc2)cc1 [II-293] | < 10
36 | CC(=O)c1ccc(-c2ccc(B(O)O)cc2)cc1 [II-295] | < 10
37 | CC(C)(C)c1ccc(-c2ccc(B(O)O)cc2)cc1 [II-296] | 10 to 1000
38 | CCCc1ccc(-c2ccc(B(O)O)cc2)cc1 [II-297] | 10 to 100
39 | O=C(c1ccccc1)c1ccc(-c2ccc(B(O)O)cc2)cc1 [II-298] | 10 to 100
40 | CC(=O)Oc1ccc(-c2ccc(B(O)O)cc2)cc1 [II-299] | 10 to 100
41 | COc1ccc(-c2ccc(B(O)O)cc2)cc1 [II-300] | 10 to 100
42 | OB(O)c1cnn(Cc2ccccc2)c1 [II-302] | > 1000
43 | NC(=O)c1cccc(-c2cccc(B(O)O)c2)c1 [II-303] | > 1000
44 | NC(=O)c1ccc(-c2cccc(B(O)O)c2)cc1 [II-304] | > 1000
45 | OB(O)c1ccc(-c2ccccc2F)cc1F [II-305] | < 10
46 | OB(O)c1ccc(-c2ccc(F)cc2)cc1F [II-306] | < 10
47 | OB(O)c1ccc(OCc2ccccc2)c(Cl)c1 [II-313] | 10 to 100
48 | OB(O)c1ccc(OCc2ccccc2)cc1 [II-314] | 10 to 100
49 | OB(O)c1cccc(OCc2ccccc2)c1 [II-316] | 10 to 100
50 | OB(O)c1ccc(Oc2ccccc2)cc1 [II-317] | < 10

Biological target: T2, rat FAAH (Rattus norvegicus, UniProt P97612)
T2 construct: Five rat livers are homogenized in five fold volume with ice cold Tris; from tissue; host or cells: rat liver; 40,000 g membrane pellet solubilised in 1% Triton X-100
T2 sequence (P97612 1-579): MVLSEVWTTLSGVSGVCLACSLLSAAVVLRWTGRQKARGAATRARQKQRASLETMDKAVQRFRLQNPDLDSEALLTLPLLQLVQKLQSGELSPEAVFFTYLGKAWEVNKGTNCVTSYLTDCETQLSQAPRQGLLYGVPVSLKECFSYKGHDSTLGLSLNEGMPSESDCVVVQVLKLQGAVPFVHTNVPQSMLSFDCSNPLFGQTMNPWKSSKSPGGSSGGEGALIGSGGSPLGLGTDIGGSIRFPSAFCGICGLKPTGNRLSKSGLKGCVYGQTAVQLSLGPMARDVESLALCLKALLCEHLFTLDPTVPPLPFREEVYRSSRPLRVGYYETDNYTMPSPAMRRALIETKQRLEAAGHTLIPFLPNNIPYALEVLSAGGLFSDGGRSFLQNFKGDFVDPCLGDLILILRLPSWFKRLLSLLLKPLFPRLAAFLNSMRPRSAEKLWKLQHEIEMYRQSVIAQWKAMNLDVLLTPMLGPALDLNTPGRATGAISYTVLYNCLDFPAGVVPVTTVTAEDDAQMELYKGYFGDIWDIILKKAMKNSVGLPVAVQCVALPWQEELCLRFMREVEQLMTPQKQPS
Test: Rat FAAH biochemical inhibition assay (AMC arachidonoyl amide fluorescence)
Conditions: Table 1, rat FAAH (asterisk)
Description: The following assays may be used to determine the inhibition of FAAH by the compounds of the present invention: (1) a fluorescence-based assay for fatty acid amide hydrolase compatible with high-throughput screening as described in Manjunath et al., Analytical Biochemistry (2005) 343:143-151; and (2) a high-throughput screening for the discovery of inhibitors of fatty acid amide hydrolase using a microsome-based fluorescent assay. Wang et al., Biomolecular Screening (2006) 1-9.
Rat FAAH Preparation: Five rat livers are homogenized in five fold volume with ice cold Tris (20 mM pH 8.0) and 0.32 M Sucrose solution via an Ultra Turrax T25 homogenizer. All subsequent preparation steps are carried out at 4° C. The homogenate is centrifuged at 6000 g, for 20 minutes and the pellet, containing nuclear debris and mitochondria is discarded. The supernatant is centrifuged at 40,000 g for 30 minutes. […]
Rat FAAH Biochemical Inhibition Assay; Materials and methods: Rat FAAH biochemical assays are carried out in a 96 well flat bottom black non-treated polystyrene plates (Corning Costar Catalogue #3915). […] FAAH substrate—AMC Arachidonoyl Amide (Cayman Chemicals Company, Catalogue #10005098) The reaction is read in an Envision microtiter plate reader [Excitation filter 355 nm (40 nm bandpass); Emmision filter 460 nm (25 nm bandpass)]. The raw fluorescence is plotted on the y axis and the inhibitor concentration on the x axis to give a dose response inhibition curve. […]
Rat FAAH Biochemical Inhibition Assay; Experimental Protocol: The principle of this assay is the hydrolysis of AMC-Arichodonoyl, a fluorescent analogue of Anandamide, which results in the formation of Arachidonic acid and AMC. The formation of AMC results in an increase in fluorescence (see, for example, Manjunath et al., Analytical Biochemistry (2005) 343:143-151; and Wang et al., Bimolecular Screening (2006) 1-9).
A 0.49 mg/ml Rat liver FAAH solution is made up in FAAH reaction buffer, and 78 ul pipetted into a 96 well plate. […] The microtiter plate is read in the envision plate reader. […]

Row | SMILES | Ki [nM]
51 | OB(O)c1cc2ccccc2s1 [Compound I-127] | 10 to 1000
52 | CCCCCCOc1ccc(B(O)O)cc1 [Compound I-130] | 10 to 1000

Same assay, conditions: Table 2, rat FAAH (asterisk)

Row | SMILES | Ki [nM]
53 | CCCCOc1cccc(B(O)O)c1 [II-315] | 10 to 1000
